Reference: patent US8026254B2, “Therapeutic agents useful for treating pain” (Purdue Pharma, L.P., priority 2002, dated 2011)

Molecular target: μ-opioid receptors (Homo sapiens, UniProt P35372)
Experiment: μ-opioid receptor radioligand dose-displacement binding assay ([3H]-diprenorphine)
Experimental: μ- and ORL-1-Receptor-Binding-Assay Procedures
Radioligand dose-displacement binding assays for ORL-1 and […] use 0.1 nM [^3H]-nociceptin or 0.2 nM [^3H]-diprenorphine (NEN, Boston, Mass.), respectively, with […] membrane protein/well in a final volume of […] binding buffer (10 mM MgCl2, 1 mM EDTA, 5% DMSO, 50 mM HEPES, pH 7.4). Reactions are carried out in the absence or presence of increasing concentrations of unlabled nociceptin (American Peptide Company, Sunnyvale, Calif.) or naloxone, for ORL-1 and μ, respectively. All reactions are conducted in 96-deep well polypropylene plates for 1-2 h at room temperature. Binding reactions are terminated by rapid filtration onto 96-well Unifilter GF/C filter plates (Packard, Meriden, Conn.) presoaked in 0.5% polyethylenimine using a 96-well tissue harvester (Brandel, Gaithersburg, Md.) followed performing by three filtration washes with 500 μL of ice-cold binding buffer. Filter plates are subsequently dried at 50° C. for 2-3 h. BetaScint scintillation cocktail (Wallac, Turku, Finland) is added (50 μl/well), and plates are counted using a Packard Top-Count for 1 min/well. The data are analyzed using the one-site competition curve fitting functions in GraphPad PRISM v. 3.0 (San Diego, Calif.).

μ-opioid receptors, sequence (P35372 whole entry): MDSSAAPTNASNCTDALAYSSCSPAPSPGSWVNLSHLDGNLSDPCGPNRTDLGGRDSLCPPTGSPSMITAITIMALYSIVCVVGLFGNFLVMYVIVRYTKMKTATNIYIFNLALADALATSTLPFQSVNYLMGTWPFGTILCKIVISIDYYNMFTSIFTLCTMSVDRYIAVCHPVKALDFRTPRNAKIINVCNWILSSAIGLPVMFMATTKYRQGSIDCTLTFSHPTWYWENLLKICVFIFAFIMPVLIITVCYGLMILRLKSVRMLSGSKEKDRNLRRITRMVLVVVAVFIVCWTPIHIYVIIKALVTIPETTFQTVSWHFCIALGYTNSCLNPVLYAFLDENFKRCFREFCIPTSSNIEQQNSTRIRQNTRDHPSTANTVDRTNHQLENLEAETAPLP

Compound: CN(C)C(=O)C(CCN1CCC(c2ccccc2)(c2nnn[nH]2)CC1)(c1ccccc1)c1ccccc1 [AFD]
- Ki: 3.2 nM
